These results are taken from PubChem BioAssay (NCI).

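Cultured in 96-well plates, cells were exposed to test compound for 48 hours across five concentrations. GI50 marks 50% less growth. TGI marks complete inhibition of growth.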

For one assay, the system named is A549 NSCLC. As to the kind of experiment: NCI tumour cell line growth inhibition, 48 h.
`O=C(Nc1nccs1)c1c(O)nc2sccn2c1=O` yielded a TGI of over 10 µM.
The compound `O=c1[nH]c(=O)n(C2OC(CO)C(O)C2O)c2nc(-c3ccc(-c4ccccc4)cc3)cnc12` (stereo not given) registered a TGI of over 100 µM.
As to `O=C1NCCN1/N=C/c1c(Cl)n(-c2ccccc2)c2ccccc12`, the TGI was over 100 µM.
Take `CCCCCCOc1ccc(C(=O)NOC)cc1`: the TGI is over 100 µM.
`N=C(N)SCc1ccc2c(c1)Sc1ccccc1O2`: the TGI worked out at 23 µM.
Regarding `CO[C@H]1/C=C(/C)CCC[C@H](C)[C@H](O)[C@@H](C)C(=O)C(C)(C)[C@@H](O)CC(=O)O[C@@H]1/C(C)=C/c1csc(C)n1`, the GI50 was 0.0219 µM and the TGI is over 100 µM.
For the compound `CCC1(CC)C(=O)NN(C(=O)c2ccccc2)C1=O`, the TGI was over 100 µM.
`CC(=O)Nc1nc(C#N)[nH]c1C#N` yielded a TGI of over 100 µM.
In turn, `CS(=O)c1ncc2c(n1)-c1ccccc1OC2` (stereo not given) registered a TGI of over 100 µM.
The same measure, in the same setting: the same measure for `CN(C)c1ccc(C(=N/N=C2\C(=O)Nc3ccccc32)c2ccc(N(C)C)cc2)cc1`: 43.2 µM.

A further assay concerns CCRF-CEM leukemia. As to the kind of experiment: NCI tumour cell line growth inhibition, 48 h.
On to `O=C(Nc1nccs1)c1c(O)nc2sccn2c1=O`, for which the TGI was over 10 µM.
On to `O=c1[nH]c(=O)n(C2OC(CO)C(O)C2O)c2nc(-c3ccc(-c4ccccc4)cc3)cnc12` (stereo not given), for which the TGI was over 100 µM.
In turn, `O=C1NCCN1/N=C/c1c(Cl)n(-c2ccccc2)c2ccccc12` came in with a TGI of over 100 µM.
Compound `CCCCCCOc1ccc(C(=O)NOC)cc1` registered a TGI of over 100 µM.
With `N=C(N)SCc1ccc2c(c1)Sc1ccccc1O2`, the TGI is over 54.1 µM.
As to `CO[C@H]1/C=C(/C)CCC[C@H](C)[C@H](O)[C@@H](C)C(=O)C(C)(C)[C@@H](O)CC(=O)O[C@@H]1/C(C)=C/c1csc(C)n1`, the GI50 was 0.03 µM and the TGI is over 100 µM.
On to `CCC1(CC)C(=O)NN(C(=O)c2ccccc2)C1=O`, for which the TGI is over 100 µM.
In the case of `CC(=O)Nc1nc(C#N)[nH]c1C#N`, the TGI is over 100 µM.
Compound `CS(=O)c1ncc2c(n1)-c1ccccc1OC2` (stereo not given) gave a TGI of over 100 µM.
`CN(C)c1ccc(C(=N/N=C2\C(=O)Nc3ccccc32)c2ccc(N(C)C)cc2)cc1` showed a TGI of 13.2 µM.

The next assay has as its system HCC-2998 colon. As to the kind of experiment: NCI tumour cell line growth inhibition, 48 h.
In turn, `O=C(Nc1nccs1)c1c(O)nc2sccn2c1=O` came in with a TGI of over 10 µM.
The compound `O=c1[nH]c(=O)n(C2OC(CO)C(O)C2O)c2nc(-c3ccc(-c4ccccc4)cc3)cnc12` (stereo not given) registered a TGI of over 100 µM.
The same measure, in the same setting: next, `O=C1NCCN1/N=C/c1c(Cl)n(-c2ccccc2)c2ccccc12`: 36.2 µM; `CCCCCCOc1ccc(C(=O)NOC)cc1`: over 100 µM.
As to `N=C(N)SCc1ccc2c(c1)Sc1ccccc1O2`, the TGI was 6.89 µM.
In the case of `CO[C@H]1/C=C(/C)CCC[C@H](C)[C@H](O)[C@@H](C)C(=O)C(C)(C)[C@@H](O)CC(=O)O[C@@H]1/C(C)=C/c1csc(C)n1`, the GI50 is 0.0203 µM and the TGI turned out to be 0.259 µM.
The compound `CCC1(CC)C(=O)NN(C(=O)c2ccccc2)C1=O` came in with a TGI of over 100 µM.
In turn, `CC(=O)Nc1nc(C#N)[nH]c1C#N` registered a TGI of over 100 µM.
Compound `CS(=O)c1ncc2c(n1)-c1ccccc1OC2` (stereo not given) displayed a TGI of over 100 µM.
In turn, `CN(C)c1ccc(C(=N/N=C2\C(=O)Nc3ccccc32)c2ccc(N(C)C)cc2)cc1` yielded a TGI of 17.5 µM.

The test system of a further assay is HOP-62 NSCLC. As to the kind of experiment: NCI tumour cell line growth inhibition, 48 h.
`O=C(Nc1nccs1)c1c(O)nc2sccn2c1=O` returned a TGI of over 10 µM.
Consider `O=c1[nH]c(=O)n(C2OC(CO)C(O)C2O)c2nc(-c3ccc(-c4ccccc4)cc3)cnc12` (stereo not given), for which the TGI is over 100 µM.
`O=C1NCCN1/N=C/c1c(Cl)n(-c2ccccc2)c2ccccc12` came in with a TGI of over 100 µM.
For the compound `CCCCCCOc1ccc(C(=O)NOC)cc1`, the TGI is over 100 µM.
Consider `N=C(N)SCc1ccc2c(c1)Sc1ccccc1O2`, for which the TGI is 34.1 µM.
Regarding `CO[C@H]1/C=C(/C)CCC[C@H](C)[C@H](O)[C@@H](C)C(=O)C(C)(C)[C@@H](O)CC(=O)O[C@@H]1/C(C)=C/c1csc(C)n1`, the GI50 is 0.0414 µM and the TGI is over 100 µM.
In turn, `CCC1(CC)C(=O)NN(C(=O)c2ccccc2)C1=O` showed a TGI of over 100 µM.
For `CC(=O)Nc1nc(C#N)[nH]c1C#N`, the TGI was over 100 µM.
Consider `CS(=O)c1ncc2c(n1)-c1ccccc1OC2` (stereo not given), for which the TGI was over 100 µM.
Compound `CN(C)c1ccc(C(=N/N=C2\C(=O)Nc3ccccc32)c2ccc(N(C)C)cc2)cc1` yielded a TGI of 41.9 µM.

The next assay has as its system M14 melanoma. Kind of assay: NCI tumour cell line growth inhibition, 48 h.
The compound `O=C(Nc1nccs1)c1c(O)nc2sccn2c1=O` gave a TGI of over 10 µM.
The compound `O=c1[nH]c(=O)n(C2OC(CO)C(O)C2O)c2nc(-c3ccc(-c4ccccc4)cc3)cnc12` (stereo not given) yielded a TGI of over 100 µM.
The compound `O=C1NCCN1/N=C/c1c(Cl)n(-c2ccccc2)c2ccccc12` gave a TGI of 36.8 µM.
Same read-out and setting: the same measure for `CCCCCCOc1ccc(C(=O)NOC)cc1`: over 100 µM; for `N=C(N)SCc1ccc2c(c1)Sc1ccccc1O2`: 7.55 µM.
On to `CO[C@H]1/C=C(/C)CCC[C@H](C)[C@H](O)[C@@H](C)C(=O)C(C)(C)[C@@H](O)CC(=O)O[C@@H]1/C(C)=C/c1csc(C)n1`, for which the GI50 was 0.0218 µM and the TGI is over 100 µM.
For `CCC1(CC)C(=O)NN(C(=O)c2ccccc2)C1=O`, the TGI is over 100 µM.
On the same count and under the same terms, the same measure for `CC(=O)Nc1nc(C#N)[nH]c1C#N`: over 100 µM; for `CS(=O)c1ncc2c(n1)-c1ccccc1OC2` (stereo not given): over 100 µM; for `CN(C)c1ccc(C(=N/N=C2\C(=O)Nc3ccccc32)c2ccc(N(C)C)cc2)cc1`: 14.4 µM.

In another assay the test system is NCI-H522 lung. As to the kind of experiment: NCI tumour cell line growth inhibition, 48 h.
In turn, `O=C(Nc1nccs1)c1c(O)nc2sccn2c1=O` gave a TGI of over 10 µM.
`O=c1[nH]c(=O)n(C2OC(CO)C(O)C2O)c2nc(-c3ccc(-c4ccccc4)cc3)cnc12` (stereo not given) had a TGI of over 100 µM.
As for `O=C1NCCN1/N=C/c1c(Cl)n(-c2ccccc2)c2ccccc12`, the TGI is 44.4 µM.
`CCCCCCOc1ccc(C(=O)NOC)cc1` gave a TGI of over 100 µM.
For the compound `N=C(N)SCc1ccc2c(c1)Sc1ccccc1O2`, the TGI is 3.09 µM.
Regarding `CO[C@H]1/C=C(/C)CCC[C@H](C)[C@H](O)[C@@H](C)C(=O)C(C)(C)[C@@H](O)CC(=O)O[C@@H]1/C(C)=C/c1csc(C)n1`, the GI50 is under 0.01 µM and the TGI was determined as 0.0224 µM.
`CCC1(CC)C(=O)NN(C(=O)c2ccccc2)C1=O`: the TGI was over 100 µM.
On the same count and under the same terms, the same measure for `CC(=O)Nc1nc(C#N)[nH]c1C#N`: over 100 µM.
Same read-out and setting: the same measure for `CS(=O)c1ncc2c(n1)-c1ccccc1OC2` (stereo not given): over 100 µM.
Consider `CN(C)c1ccc(C(=N/N=C2\C(=O)Nc3ccccc32)c2ccc(N(C)C)cc2)cc1`, for which the TGI came out at 0.649 µM.

The next assay relates to NCI/ADR-RES ovarian. As to the kind of experiment: NCI tumour cell line growth inhibition, 48 h.
For `O=C(Nc1nccs1)c1c(O)nc2sccn2c1=O`, the TGI is over 10 µM.
`O=c1[nH]c(=O)n(C2OC(CO)C(O)C2O)c2nc(-c3ccc(-c4ccccc4)cc3)cnc12` (stereo not given) showed a TGI of over 100 µM.
As to `O=C1NCCN1/N=C/c1c(Cl)n(-c2ccccc2)c2ccccc12`, the TGI was found to be 49.6 µM.
Consider `CCCCCCOc1ccc(C(=O)NOC)cc1`, for which the TGI was over 100 µM.
The compound `N=C(N)SCc1ccc2c(c1)Sc1ccccc1O2` showed a TGI of 34.6 µM.
With `CO[C@H]1/C=C(/C)CCC[C@H](C)[C@H](O)[C@@H](C)C(=O)C(C)(C)[C@@H](O)CC(=O)O[C@@H]1/C(C)=C/c1csc(C)n1`, the GI50 is 0.0252 µM and the TGI came to 0.128 µM.
Consider `CCC1(CC)C(=O)NN(C(=O)c2ccccc2)C1=O`, for which the TGI is over 100 µM.
Compound `CC(=O)Nc1nc(C#N)[nH]c1C#N` came in with a TGI of over 100 µM.
Compound `CS(=O)c1ncc2c(n1)-c1ccccc1OC2` (stereo not given) registered a TGI of over 100 µM.
`CN(C)c1ccc(C(=N/N=C2\C(=O)Nc3ccccc32)c2ccc(N(C)C)cc2)cc1`: the TGI was determined as 3.59 µM.

Another assay deals with RPMI-8226 leukemia. Kind of assay: NCI tumour cell line growth inhibition, 48 h.
The compound `O=C(Nc1nccs1)c1c(O)nc2sccn2c1=O` gave a TGI of over 10 µM.
On the same count and under the same terms, next, `O=c1[nH]c(=O)n(C2OC(CO)C(O)C2O)c2nc(-c3ccc(-c4ccccc4)cc3)cnc12` (stereo not given): over 100 µM; `O=C1NCCN1/N=C/c1c(Cl)n(-c2ccccc2)c2ccccc12`: 52.8 µM.
With `CCCCCCOc1ccc(C(=O)NOC)cc1`, the TGI was over 100 µM.
Still for that read-out and setting: next, `N=C(N)SCc1ccc2c(c1)Sc1ccccc1O2`: over 36.8 µM.
On to `CO[C@H]1/C=C(/C)CCC[C@H](C)[C@H](O)[C@@H](C)C(=O)C(C)(C)[C@@H](O)CC(=O)O[C@@H]1/C(C)=C/c1csc(C)n1`, for which the GI50 was 0.0705 µM and the TGI was over 100 µM.
In the case of `CCC1(CC)C(=O)NN(C(=O)c2ccccc2)C1=O`, the TGI was over 100 µM.
As for `CC(=O)Nc1nc(C#N)[nH]c1C#N`, the TGI was over 100 µM.
The same measure, in the same setting: the same measure for `CS(=O)c1ncc2c(n1)-c1ccccc1OC2` (stereo not given): over 100 µM.
`CN(C)c1ccc(C(=N/N=C2\C(=O)Nc3ccccc32)c2ccc(N(C)C)cc2)cc1`: the TGI came to 3.46 µM.

In a further assay the test system is SF-295 CNS. Kind of assay: NCI tumour cell line growth inhibition, 48 h.
For the compound `O=C(Nc1nccs1)c1c(O)nc2sccn2c1=O`, the TGI is over 10 µM.
In the case of `O=c1[nH]c(=O)n(C2OC(CO)C(O)C2O)c2nc(-c3ccc(-c4ccccc4)cc3)cnc12` (stereo not given), the TGI was over 100 µM.
As for `O=C1NCCN1/N=C/c1c(Cl)n(-c2ccccc2)c2ccccc12`, the TGI is over 100 µM.
In turn, `CCCCCCOc1ccc(C(=O)NOC)cc1` returned a TGI of over 100 µM.
Compound `N=C(N)SCc1ccc2c(c1)Sc1ccccc1O2` showed a TGI of 24.2 µM.
Turning to `CO[C@H]1/C=C(/C)CCC[C@H](C)[C@H](O)[C@@H](C)C(=O)C(C)(C)[C@@H](O)CC(=O)O[C@@H]1/C(C)=C/c1csc(C)n1`, the GI50 is under 0.0168 µM and the TGI is 0.279 µM.
With `CCC1(CC)C(=O)NN(C(=O)c2ccccc2)C1=O`, the TGI is over 100 µM.
As for `CC(=O)Nc1nc(C#N)[nH]c1C#N`, the TGI was over 100 µM.
The same measure, in the same setting: the same measure for `CS(=O)c1ncc2c(n1)-c1ccccc1OC2` (stereo not given): over 100 µM; for `CN(C)c1ccc(C(=N/N=C2\C(=O)Nc3ccccc32)c2ccc(N(C)C)cc2)cc1`: 4.13 µM.

The subject of another assay is SNB-19 CNS. As to the kind of experiment: NCI tumour cell line growth inhibition, 48 h.
`O=C(Nc1nccs1)c1c(O)nc2sccn2c1=O` had a TGI of over 10 µM.
In turn, `O=c1[nH]c(=O)n(C2OC(CO)C(O)C2O)c2nc(-c3ccc(-c4ccccc4)cc3)cnc12` (stereo not given) registered a TGI of over 100 µM.
Consider `O=C1NCCN1/N=C/c1c(Cl)n(-c2ccccc2)c2ccccc12`, for which the TGI is 56.9 µM.
`CCCCCCOc1ccc(C(=O)NOC)cc1` gave a TGI of over 100 µM.
For the compound `N=C(N)SCc1ccc2c(c1)Sc1ccccc1O2`, the TGI is 30.6 µM.
As for `CO[C@H]1/C=C(/C)CCC[C@H](C)[C@H](O)[C@@H](C)C(=O)C(C)(C)[C@@H](O)CC(=O)O[C@@H]1/C(C)=C/c1csc(C)n1`, the GI50 is 0.0486 µM and the TGI is over 100 µM.
For `CCC1(CC)C(=O)NN(C(=O)c2ccccc2)C1=O`, the TGI was over 100 µM.
`CC(=O)Nc1nc(C#N)[nH]c1C#N` had a TGI of over 100 µM.
Same read-out and setting: next, `CS(=O)c1ncc2c(n1)-c1ccccc1OC2` (stereo not given): over 100 µM.
`CN(C)c1ccc(C(=N/N=C2\C(=O)Nc3ccccc32)c2ccc(N(C)C)cc2)cc1` yielded a TGI of over 100 µM.
